From PubChem BioAssay AID1033 (Sanford-Burnham Center for Chemical Genomics, 2008)
The source made the active and inactive calls. No rule for the calls is given here.

Target: Chaperone protein DnaK (Escherichia coli (strain K12)) (UniProt P0A6Y8)
Test: E. coli DnaK SBD ligand binding – biophysical, NMR, chaperone (AID 1033)
Details: Purified DnaK SBD

Chaperone protein DnaK (Escherichia coli (strain K12)), sequence (P0A6Y8 whole entry, looked up): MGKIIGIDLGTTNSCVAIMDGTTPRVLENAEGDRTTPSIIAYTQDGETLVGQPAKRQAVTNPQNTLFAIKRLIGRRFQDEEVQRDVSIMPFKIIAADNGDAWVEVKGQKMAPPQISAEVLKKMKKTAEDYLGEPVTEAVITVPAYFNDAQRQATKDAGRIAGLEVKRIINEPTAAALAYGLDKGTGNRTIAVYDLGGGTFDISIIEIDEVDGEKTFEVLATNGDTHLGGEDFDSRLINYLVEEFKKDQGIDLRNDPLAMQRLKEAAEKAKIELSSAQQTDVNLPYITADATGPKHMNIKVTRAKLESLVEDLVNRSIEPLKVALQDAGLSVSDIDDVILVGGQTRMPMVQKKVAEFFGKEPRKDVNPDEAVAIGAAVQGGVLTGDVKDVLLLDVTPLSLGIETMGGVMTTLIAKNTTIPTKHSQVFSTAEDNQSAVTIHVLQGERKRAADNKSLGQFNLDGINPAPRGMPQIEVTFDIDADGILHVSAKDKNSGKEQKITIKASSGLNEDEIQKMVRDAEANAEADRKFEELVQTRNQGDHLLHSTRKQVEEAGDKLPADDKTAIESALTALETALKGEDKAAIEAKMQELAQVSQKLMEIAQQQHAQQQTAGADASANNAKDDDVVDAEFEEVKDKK

Row | SMILES | Kd
1 | CSc1ccccc1NC(=O)c1ccc(C)o1 | > 4 mM (inactive)
2 | COc1cc2nc(-c3cccs3)oc(=O)c2cc1OC | > 4 mM (inactive)
3 | Cc1cc2c(=O)n(C)c(SCC(N)=O)nc2s1 | > 4 mM (inactive)
4 | O=C(CN1C(=O)c2cccc3cccc(c23)C1=O)NO | > 4 mM (inactive)
5 | COC(=O)C1[C@H]2C[C@H]3c4[nH]c5ccccc5c4CCN3C[C@@H]2CC[C@@H]1O (stereo partly specified) | > 4 mM (inactive)
6 | COc1ccc(C(O)c2nccn2C)cc1 (stereo unspecified) | > 4 mM (inactive)
7 | CC(=O)N1C(=S)NC(=O)/C1=C\c1cccnc1 | > 4 mM (inactive)
8 | NC(=O)CN=Cc1c(O)[nH]c2ccccc12 | > 4 mM (inactive)
9 | Cc1nnc(SCc2ccon2)n1-c1ccccc1 | > 4 mM (inactive)
10 | Cn1ncc(CO)c1-c1ccccc1 | > 4 mM (inactive)
11 | c1ccc(-n2cnnc2)nc1 | > 4 mM (inactive)
12 | CC(C)Oc1ccc(NC(N)=O)cc1 | > 4 mM (inactive)
13 | O=S(=O)(c1ccc(F)c(Cl)c1)N1CCCC1 | > 4 mM (inactive)
14 | CC(=O)O[C@@H]1C=C[C@@]2(C)C(C[C@@H](OC(C)=O)[C@@]3(C)C4=CC(=O)O[C@@H](c5ccoc5)[C@]4(C)CCC23)C1(C)C (stereo partly specified) | > 4 mM (inactive)
15 | NS(=O)(=O)c1ccc(N=Cc2ccc[nH]2)cc1 | > 4 mM (inactive)
16 | O=C(O)CCc1c[nH]c2ccccc12 | > 4 mM (inactive)
17 | CCN1CCn2c1nc(N1CCOCC1)nc2=O | > 4 mM (inactive)
18 | OCC1COc2ccccc2C1 (stereo unspecified) | > 4 mM (inactive)
19 | CC(CCC(=O)O)[C@H]1CCC2C3C[C@H](O)[C@@H]4C[C@H](O)CC[C@]4(C)C3CC[C@@]21C (stereo partly specified) | > 4 mM (inactive)
20 | COc1cc(OC)c(-c2c(OC)cc(OC)cc2OC)c(OC)c1 | > 4 mM (inactive)
21 | NCc1nc2ccccc2s1 | > 4 mM (inactive)
22 | Nc1nc2ncc(CNc3ccc(C(=O)N[C@@H](CCC(=O)O)C(=O)O)cc3)nc2c(=O)[nH]1 | > 4 mM (inactive)
23 | CCOC(=O)C1C(=O)C2CCN1CC2 (stereo unspecified) | > 4 mM (inactive)
24 | O=C1CCCC(=O)N1c1ccc(O)cc1 | > 4 mM (inactive)
25 | O=[N+]([O-])c1ccc2c(c1)N([O-])C1(CCCCC1)[N+]2=O | > 4 mM (inactive)

Row | SMILES | Kd
26 | CN(C)C(=O)Nc1ccc(F)cc1F | > 4 mM (inactive)
27 | C[C@@H]1CC[C@@]2(OC1)OC1CC3C4CC=C5C[C@@H](O)CC[C@]5(C)C4CC[C@]3(C)C1[C@@H]2C (stereo partly specified) | > 4 mM (inactive)
28 | Cc1cc(O)c2c(c1O)C(=O)c1c(O)cc(C)c(O)c1C2=O | > 4 mM (inactive)
29 | O=C1c2ccccc2C(=O)N1Cc1ccco1 | > 4 mM (inactive)
30 | c1cncc(C(N2CCOCC2)N2CCOCC2)c1 | > 4 mM (inactive)
31 | C=CCN1CC[C@]23c4c5ccc(O)c4OC2C(=O)CC[C@@]3(O)[C@H]1C5 (stereo partly specified) | > 4 mM (inactive)
32 | Cc1c(N=Cc2ccco2)c(=O)n(-c2ccccc2)n1C | > 4 mM (inactive)
33 | CC1(O)CC2C(CC1O)C2(C)C (stereo unspecified) | > 4 mM (inactive)
34 | Cc1cc(NC(=O)c2cnn3cccnc23)no1 | > 4 mM (inactive)
35 | N#CC(O[C@@H]1O[C@H](CO[C@@H]2O[C@H](CO)[C@@H](O)[C@H](O)[C@H]2O)[C@@H](O)[C@H](O)[C@H]1O)c1ccccc1 (stereo partly specified) | > 4 mM (inactive)
36 | CCOC(=O)CSc1nnc(C)c(=O)[nH]1 | > 4 mM (inactive)
37 | CCc1c(C)n([O-])c2c([n+]1=O)CCC2 | > 4 mM (inactive)
38 | Cc1nc2ccccc2c(=O)n1-c1cccc(O)c1 | > 4 mM (inactive)
39 | C=CCCCCCCCCCCCc1ccco1 | > 4 mM (inactive)
40 | NC(=O)c1cc(N)ccc1N1CCCCC1 | > 4 mM (inactive)
41 | COc1ccc(NC(=O)CCCC(=O)O)c(OC)c1 | > 4 mM (inactive)
42 | Nc1ccccc1-n1cccn1 | > 4 mM (inactive)
43 | COc1ccc(NC2=NCC(C)S2)cc1 (stereo unspecified) | > 4 mM (inactive)
44 | CC1CN=C(Nc2ccccc2)S1 (stereo unspecified) | > 4 mM (inactive)
45 | N#Cc1nc(-c2ccccc2Cl)oc1N1CCOCC1 | > 4 mM (inactive)
46 | COC(=O)CCC(C)[C@H]1CCC2C3C(C[C@H](O)[C@@]21C)[C@@]1(C)CC[C@@H](O)C[C@H]1C[C@H]3O (stereo partly specified) | > 4 mM (inactive)
47 | CC(=O)Nc1ccc(C)cc1NC(C)=O | > 4 mM (inactive)
48 | CN(C)C(=O)CSc1nc(N)cc(=O)[nH]1 | > 4 mM (inactive)
49 | O=C1C2C3CCC(O3)C2C(=O)N1c1cccc(F)c1 (stereo unspecified) | > 4 mM (inactive)
50 | c1ccc(-c2nnc3sc(-c4ccncc4)nn23)cc1 | > 4 mM (inactive)

Row | SMILES | Kd
51 | Cc1ccc(=O)[nH]c1 | > 4 mM (inactive)
52 | N#Cc1nc(N2CCCCC2)nc(N2CCOCC2)n1 | > 4 mM (inactive)
53 | Cc1ccc(-n2[nH]c(C)cc2=O)cc1 | > 4 mM (inactive)
54 | O=C(Nc1nncs1)C1(c2ccccc2)CCCC1 | > 4 mM (inactive)
55 | C/C=C(\C)c1nnc(NC(=O)c2ccco2)s1 | > 4 mM (inactive)
56 | COc1ccccc1CNc1nc2nc(C)cc(=O)n2[nH]1 | > 4 mM (inactive)
57 | O=C(c1ccc(Cl)s1)N1CCOCC1 | > 4 mM (inactive)
58 | CC(=O)Oc1ccc2c(c1C(C)C)CCC1C(C)(C)CCC[C@]21C (stereo partly specified) | > 4 mM (inactive)
59 | Nc1ccc(OC(F)(F)F)cc1 | > 4 mM (inactive)
60 | O=S1(=O)CCC(NC(=S)Nc2ccccc2)C1 (stereo unspecified) | > 4 mM (inactive)
61 | CCN1CCc2c(sc(N)c2C(N)=O)C1 | > 4 mM (inactive)
62 | Cc1nc2ccccc2c(=O)n1NC(=O)C1CCCCC1 | > 4 mM (inactive)
63 | COc1cc(O)c2c(=O)cc(-c3ccc(OC)c(-c4c(O)cc(O)c5c(=O)cc(-c6ccc(O)cc6)oc45)c3)oc2c1 | > 4 mM (inactive)
64 | Cc1ccc2cc(CO)ccc2n1 | > 4 mM (inactive)
65 | O=C(Cc1cccs1)Nc1nncs1 | > 4 mM (inactive)
66 | CC(=O)NC(=S)Nc1cccc(C(=O)O)c1C | > 4 mM (inactive)
67 | c1ccc(Cc2nnc(-c3ccccc3)o2)cc1 | > 4 mM (inactive)
68 | O=C(NCc1ccccc1Br)c1ccco1 | > 4 mM (inactive)
69 | O=S(=O)(Cc1ccc(Cl)cc1)N1CCCC1 | > 4 mM (inactive)
70 | Nc1cccc(NC(=O)c2ccco2)c1 | > 4 mM (inactive)
71 | Cn1[nH]c(C(F)(F)F)cc1=O | > 4 mM (inactive)
72 | O=C1CSC(=Nc2ccc(O)cc2)N1 | > 4 mM (inactive)
73 | c1n[nH]cc1-c1cn[nH]c1 | > 4 mM (inactive)
74 | O=C(Nc1ccccc1C(F)(F)F)c1cnccn1 | > 4 mM (inactive)
75 | CN1C(=O)/C(=C/c2ccc(O)cc2O)SC1=S | > 4 mM (inactive)

Row | SMILES | Kd
76 | NCc1ccc(S(N)(=O)=O)cc1 | > 4 mM (inactive)
77 | O=c1cnnc(NCc2ccc(F)cc2)[nH]1 | > 4 mM (inactive)
78 | OCc1csc(-c2ccccc2)n1 | > 4 mM (inactive)
79 | Cc1ccc(NC(=O)C2CCCNC2=O)nc1 (stereo unspecified) | > 4 mM (inactive)
80 | CCOC(=O)C1CCN(c2ccc(C#N)cc2)CC1 | > 4 mM (inactive)
81 | CCOC(=O)CC1Sc2ccccc2NC1=O (stereo unspecified) | > 4 mM (inactive)
82 | O=C1CC(=O)N2N=C(c3ccccc3)SC2=N1 | > 4 mM (inactive)
83 | CSc1cc(C)[nH]c(=O)n1 | > 4 mM (inactive)
84 | Cc1csc2nc3ccccc3c(=O)n12 | > 4 mM (inactive)
85 | OC(CCl)c1ccc(-n2cncn2)cc1 (stereo unspecified) | > 4 mM (inactive)
86 | Nc1ccc(-n2cccn2)cc1 | > 4 mM (inactive)
87 | Nc1c(F)c(F)nc(F)c1F | > 4 mM (inactive)
88 | CCCN1CCC(N2CCC(O)CC2)CC1 | > 4 mM (inactive)
89 | CS(=O)(=O)c1ccc2nc(N)sc2c1 | > 4 mM (inactive)
90 | CC1(C)CC2C1CC[C@]1(C)CCC3C(C(=O)O)CC(=O)O[C@@]32C1 (stereo partly specified) | > 4 mM (inactive)
91 | CN=C1SC(CC(=O)Nc2ccc(O)cc2)C(=O)N1C (stereo unspecified) | > 4 mM (inactive)
92 | Cn1c(C(=O)O)ccc1S(N)(=O)=O | > 4 mM (inactive)
93 | Cc1cc(N)n(C2CCOC(C)(C)C2)n1 (stereo unspecified) | > 4 mM (inactive)
94 | CSc1cccc(NC(=O)c2c(Cl)cnn2C)c1 | > 4 mM (inactive)
95 | Cn1ccc(C(=O)NC(=S)NN2CCOCC2)n1 | > 4 mM (inactive)
96 | CCOC(=O)Nc1ccc2c(C)cc(=O)oc2c1 | > 4 mM (inactive)
97 | Cc1ccc(C)c(C(=O)n2cnnc2N)c1 | > 4 mM (inactive)
98 | CC1(C)C(=O)[C@@H]2C[C@@]3(O)C4=CC(=O)O[C@@H](c5ccoc5)[C@]4(C)CCC3C(C)(C2=O)[C@H]1CC(=O)O (stereo partly specified) | > 4 mM (inactive)
99 | CC(CC(=O)NN)C1(O)CCCCC1 (stereo unspecified) | > 4 mM (inactive)
100 | CN1CCC=C(C(=O)O)C1 | > 4 mM (inactive)

Row | SMILES | Kd
101 | c1coc(CNc2nc(-c3ccncc3)cs2)c1 | > 4 mM (inactive)
102 | O=C(O)C1CC(=O)N(Cc2cccs2)C1 (stereo unspecified) | > 4 mM (inactive)
103 | Cc1cc(C)n2nc(NCc3ccccc3)nc2n1 | > 4 mM (inactive)
104 | O=C(CSc1nc2ccccc2[nH]1)N1CCCCC1 | > 4 mM (inactive)
105 | Cc1nnc(Nc2ccc(S(N)(=O)=O)cc2)[nH]c1=O | > 4 mM (inactive)
106 | O=C(c1cccs1)N1CCCc2ccccc21 | > 4 mM (inactive)
107 | O=C(O)CCn1c(=O)oc2ccccc21 | > 4 mM (inactive)
108 | Cc1ncoc1C(=O)Nc1ccccc1C(N)=O | > 4 mM (inactive)
109 | CNS(=O)(=O)c1ccc2[nH]c(=O)[nH]c2c1 | > 4 mM (inactive)
110 | O=C(CSc1ncccn1)Nc1nccs1 | > 4 mM (inactive)
111 | N#Cc1cc(-c2ccccc2)oc1N | > 4 mM (inactive)
112 | Cc1cc(NC(=O)Cc2cccs2)no1 | > 4 mM (inactive)
113 | O=C(O)Cn1cnc2ccccc2c1=O | > 4 mM (inactive)
114 | Cc1cc(C)n(-c2ccc(Cl)nn2)n1 | > 4 mM (inactive)
115 | O=C(O)CCNc1n[nH]c(=O)[nH]c1=O | > 4 mM (inactive)
116 | C=C(C)C1(O)OC(=O)C=C1OC (stereo unspecified) | > 4 mM (inactive)
117 | Clc1ccc(-c2nnc3ccccn23)cc1 | > 4 mM (inactive)
118 | NS(=O)(=O)c1ccc(F)cc1 | > 4 mM (inactive)
119 | Cc1ccc(-c2nn(C)c(=O)c3ccccc23)cc1CO | > 4 mM (inactive)
120 | OCC1CN(Cc2ccccc2)CCO1 (stereo unspecified) | > 4 mM (inactive)
121 | CN(C)c1nc(N2CCOCC2)c2cnn(C)c2n1 | > 4 mM (inactive)
